Test results as given in patent US20100029654A1, “CARDIOVASCULAR COMPOSITIONS AND USE OF THE SAME FOR THE TREATMENT OF ALZHEIMER'S DISEASE” (MOUNT SINAI SCHOOL OF MEDICINE, priority 2006, published 2010).
Structures can show the parent of a compound that is named as a salt. Where two headings read alike, the source gives them in different places.

Experiments:
[1] = tested on: primary cortico-hippocampal neuron cultures
Procedure: (§3) For in vitro treatments drugs available from “The Spectrum Collection” in stocks of 10 mM in DMSO were applied directly to cultures to the desired concentrations (final 1% DMSO); control primary neuron cultures from Tg2576 embryos were treated with vehicle resulting in a final 1% DMSO.
(§4) Cell viability was assessed using a commercial available LDH assay kit according to the manufacture's instruction (Promega).

[2] = tested on: primary cortico-hippocampal neuron cultures; remark: listed apart in the source
Aβ1-40 = Aβ1-40 content in conditioned medium of primary cortico-hippocampal neuron cultures from Tg2576 mice (ELISA; primary and secondary dose-response screening); type: cell-based, mouse; conditions: for activity at 100 µM / EC50: Mus musculus; for activity at 100 µM: 24 h, read-out: Ab1-40 (% of ctl)
Summary of the method: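 Primary cortico-hippocampal neurons from embryonic Tg2576 mice were plated at 1.0×10^5 cells per well on poly-D-lysine-coated 96-well plates in Neurobasal with 2% B27, 0.5 mM L-glutamine and 1% penicillin-streptomycin. Cultures received drug in 1% DMSO, and Aβ1-40 in the conditioned medium was measured by BioSource ELISA 24 hours after treatment, relative to vehicle controls.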

Aβ1-42 [3] = assay: Aβ1-42 content in conditioned medium of primary cortico-hippocampal neuron cultures from Tg2576 mice (ELISA; primary and secondary dose-response screening); type: cell-based, mouse; conditions: for activity at 100 µM / EC50: Mus musculus; for activity at 100 µM: 24 h, read-out: Ab1-42 (% of ctl)
Aβ1-42 [4] = assay: as above; type: cell-based, mouse; conditions: for Ab1-42 (% of ctl) / activity at 100 µM: drug 100 μM; for reducing Aβ1-42: <85% of ctl; for activity at 100 µM: Mus musculus, Neuron, 24 h, read-out: Ab1-42 (% of ctl)
Summary of the method: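 This screen tested cardiovascular drugs for Aβ-lowering in Tg2576 embryonic cortico-hippocampal neuron cultures plated at 1.0×10^5 cells per well in poly-D-lysine-coated 96-well plates with Neurobasal/B27 medium. Drugs at 100 μM were added directly to the medium in duplicate, with 1% DMSO alone as the control. Conditioned medium was then collected, and its Aβ1-42 level was quantified with BioSource ELISA kits.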

[5] = tested on: primary cortico-hippocampal neuron cultures; assay: lactate dehydrogenase (LDH) activity assay in parallel neuron cultures; conditions: for LDH (at 5F-5 M): Table IV
Procedure: as §3, §4

Tg2576 mice [6] = assay: blood pressure (systolic, diastolic, MAP) by tail-cuff; type: in vivo, mouse
Procedure: FIG. 1 Tg2576 mice are characterized by normal blood pressure under basal conditions. Baseline measurements of systolic, diastolic blood pressure, and mean arteriole blood pressure (MAP) in ˜11 month old female Tg2576 mice. Strain-, age-, gender-matched WT mice were measured using a commercial blood pressure analysis system designed specifically for small rodents (Hatteras Instruments, NC). Following manufacturer's instruction, mice were temporarily immobilized in a restraining chamber and an inflated tail-cuff wrapped around the tail was used to measure the systolic pressure, diastolic pressure, and MAP. Each blood pressure determination was calculated as the mean of 10 individual measurements per animal (n=6-10 group).
FIG. 6A-C show body weight of mice in response to ˜3 weeks of treatment. […] FIG. 6D-F show the assessment of systolic, diastolic, and MAP blood pressure in Tg2576 mice in response to drug doses below or within the range of those prescribed in hypertension. Blood pressure measurements were conducted using a commercial blood pressure analysis system designed specifically for small rodents (Hatteras Instruments, NC). Following manufacturer's instruction, mice were temporarily immobilized in a restraining chamber and an inflated tail-cuff wrapped around the tail was used to measure pressures. Each blood pressure determination was calculated as the mean of 10 individual measurements per animal. In A-F, values represent mean±SEM values, n=3-5 mice per group. 2-tailed t-test: *P<0.05.
Assessment of blood pressure and glucose utilization. Mouse blood pressure was routinely recorded using a commercial blood pressure analysis system designed specifically for small rodents (Hatteras Instruments, NC). […] Briefly, mice were given a single dose of glucose post-prandially (i.p. 2 g/kg body weight). Blood was collected from the tail-vein periodically over a 2-hour period. Blood glycemic content was assessed using the OneTouch LifeScan System, (LifeScan, Milpitas, Calif.) following the manufacturer's instruction.

Tg2576 mice [7] = assay: tolerability: body weight, fluid consumption, glucose tolerance; conditions: Tg2576, short-term dosing
[8] = tested on: primary cortico-hippocampal neuron cultures; assay: MTT in primary screening
Aβ1-42 [9] = conditions: Tg2576, short-term dosing, subclinical or clinical concentrations
Procedure: Cognitive behavioral function was assessed using the Morris water maze (MWM). After completion of the MWM test, blood pressure measurements were quantified as describe in FIG. 1 legends. Following MWM testing and blood pressure assessment, mice were sacrificed for neuropathological assessment. […] C, (inset), total immunoreactive APP content normalized to β-actin signal. In C-D, bar graphs represent group mean±SEM, n=6-10 mice per group.
(§1) FIG. 7. […] Bar graphs represent group mean±SEM, n=3 mice per group. 2-tailed t-test: *P<0.05.
(§2) Assessment of AD-type amyloid neuropathology in Tg2576 mice. For quantitative assessment of Aβ peptide in the brain, frozen pulverized tissue was homogenized in 5.0 M guanidine buffer, diluted (1:10) in phosphate-buffered saline containing 0.05% (v/v) Tween-20 and 1 mM Pefabloc protease inhibitors (Roche Biochemicals, Indianapolis, Ind.), and centrifuged for 20 min at 4° C. […] Serum Aβ content was analyzed using the same ELISA Kit, following manufacturer instructions.

Aβ1-42 and Aβ1-40 = Aβ1-42 and Aβ1-40 content in peripheral blood (plasma, serum) by ELISA; type: in vivo, mouse
Procedure: as §1, §2

[10] = primary screening, drug 100 μM, Tg2576 neuron cultures, table sorted by Aβ1-42
[11] = Primary Screening, drug 100 μM, table sorted by Aβ1-40
[12] = Primary Screening, table sorted by Aβ1-40
[13] = primary screening, Tg2576 neuron cultures, table sorted by Aβ1-42
[14] = Neuron, Primary Screening, drug 100 μM, table sorted by Aβ1-40
[15] = Neuron, primary screening, drug 100 μM, Tg2576 neuron cultures, table sorted by Aβ1-42
[16] = Neuron, Table IV, dose-response 0.01-100 μM, read-out: EC50 (M): Ab-lowering activity Abeta1-40
[17] = primary screening, table sorted by Aβ1-42
[18] = Tg2576, 3 weeks, doses within the range used for hypertension
[19] = Tg2576, 3 weeks, doses ~3 fold below the minimal hypertension dose
[20] = Neuron, Table IV, dose-response 0.01-100 μM, read-out: EC50 (M): Ab-lowering activity

Molecule	LDH (% of ctl) [1]	MTT (% of ctl) [2]	reduced Aβ1-40 (Aβ1-40)	LDH (% of ctl) ([1]; Tg2576, mouse)	activity at 100 µM (Aβ1-40; [10])	Ab1-40 (% of ctl) (Aβ1-40; [11])	Ab1-42 (% of ctl) (Aβ1-42 [4]; [12])	reducing Aβ1-42 (Aβ1-42 [4]; primary screening)	activity at 100 µM (Aβ1-42 [3]; [10])	reduced Aβ1-40 (Aβ1-40; primary screening, <85% of ctl)	LDH (% of ctl) [5, 12]	LDH (% of ctl) [5, 17]	MTT (% of ctl) [8, 12]	MTT (% of ctl) [8, 17]	further results
CC(=O)[O-].CC(=O)[O-].[Cd+2] [Cadmium Acetate]	889.8 % of ctl	29.1 % of ctl	reduced Aβ1-40	–	–	–	–	–	–	–	–	–	–	–	Ab1-40 (% of ctl) (Aβ1-40): 29.5 % of ctl; Ab1-42 (% of ctl) (Aβ1-42 [3]): 3.8 % of ctl; reducing Aβ1-42 (Aβ1-42 [3]): useful in reducing Aβ1-42
CC(Cc1ccc(O)cc1)NCC(O)c1cc(O)cc(O)c1 (centres unmarked) [Fenoterol Hydrobromide]	–	–	–	104.3 % of ctl	89.3%	89.3 % of ctl	78.8 % of ctl	useful in reducing Aβ1-42	78.8%	–	–	–	–	–	MTT (% of ctl) ([2]; Tg2576, mouse): 93.9 % of ctl
COc1cccc(OC)c1OCCNCC1COc2ccccc2O1.Cl (centres unmarked) [2-(2,6-Dimethoxyphenoxyethyl) Aminomethyl-1,4-Benzodioxane Hydrochloride]	103.9 % of ctl	95.5 % of ctl	reduced Aβ1-40	–	–	–	–	–	–	–	–	–	–	–	Ab1-40 (% of ctl) (Aβ1-40): 82.6 % of ctl; Ab1-42 (% of ctl) (Aβ1-42 [3]): 94.7 % of ctl
CC(C)NCC(O)COc1cccc2ccccc12.Cl (stereo not drawn) [Propranolol Hydrochloride (−)]	166.6 % of ctl	–	–	–	–	55.0 % of ctl	32.8 % of ctl	useful in reducing Aβ1-42	–	reduced Aβ1-40	–	–	–	–	Ab1-40 (% of ctl) (Aβ1-40; [10]): 55.0 % of ctl; Ab1-42 (% of ctl) (Aβ1-42 [4]; [13]): 32.8 % of ctl
CCCCc1nc(Cl)c(CO)n1Cc1ccc(-c2ccccc2-c2nn[nH]n2)cc1 [Losartan]	–	–	–	–	–	–	–	–	–	reduced Aβ1-40	110.4 % of ctl	110.4 % of ctl	71.3 % of ctl	71.3 % of ctl	activity at 100 µM (Aβ1-40; [14]): 76%; activity at 100 µM (Aβ1-40; [15]): 76%; EC50 (Aβ1-40; [16]): 0.000117 M; LDH (at 5F-5 M) [5]: no change; systolic, diastolic, MAP blood pressure (Tg2576 mice [6]; [18]): decreased systolic, diastolic, and MAP blood pressure; systolic, diastolic, MAP blood pressure (Tg2576 mice [6]; [19]): did not significantly influence either systolic, diastolic or MAP blood pressure; activity at 100 µM (Aβ1-42 [4]; [12]): 97.1%; activity at 100 µM (Aβ1-42 [4]; [13]): 97.1%; fluid intake (Tg2576 mice [7]): did not significantly influence the amount of fluid intake; EC50 (Aβ1-42 [3]; [20]): 0.0001 M
Cl.NCCc1ccc(O)c(O)c1 [Dopamine Hydrochloride]	–	–	reduced Aβ1-40	559.5 % of ctl	–	–	–	–	–	–	–	–	–	–	MTT (% of ctl) ([2]; Tg2576, mouse): 95.7 % of ctl; activity at 100 µM (Aβ1-40; Neuron): 85%; reducing Aβ1-42 (Aβ1-42 [3]): useful in reducing Aβ1-42; activity at 100 µM (Aβ1-42 [3]; Neuron): 78.3%
COc1ccc(Cc2nccc3cc(OC)c(OC)cc23)cc1OC [Papaverine Hydrochloride]	–	–	–	–	15.3%	15.3 % of ctl	30.1 % of ctl	useful in reducing Aβ1-42	30.1%	reduced Aβ1-40	118.4 % of ctl	118.4 % of ctl	–	–	MTT (% of ctl) ([2]; Tg2576, mouse, 100 µM): 92.2 % of ctl; EC50 (Aβ1-40; Neuron, secondary dose-response screening 0.01-100 μM, 24 hours, read-out: EC50 (molar) Aβ1-40): 1.72e-05 M; LDH at E-5M % of change ([5]; drug at E-5M): −8.9%; EC50 (Aβ1-42 [3]; Neuron, secondary dose-response screening 0.01-100 μM, 24 hours, read-out: EC50 (molar) Aβ1-42): 1.91e-05 M
COC(=O)C1=C(C)NC(C)=C(C(=O)OCCN(C)Cc2ccccc2)C1c1cccc([N+](=O)[O-])c1 (centres unmarked) [Nicardipine Hydrochloride]	–	–	–	–	–	–	–	useful in reducing Aβ1-42	–	reduced Aβ1-40	104.2 % of ctl	104.2 % of ctl	52.4 % of ctl	52.4 % of ctl	steady state levels of Aβ1-42 in hippocampal formation or cerebral cortex (Aβ1-42 [9]): significantly reduced steady state levels of Aβ1-42; activity at 100 µM (Aβ1-40; [14]): 10.7%; activity at 100 µM (Aβ1-40; [15]): 10.7%; EC50 (Aβ1-40; [16]): 3.64e-05 M; LDH (at 5F-5 M) [5]: no change; systolic, diastolic, MAP blood pressure (Tg2576 mice [6]; [18]): decreased systolic, diastolic, and MAP blood pressure; systolic, diastolic, MAP blood pressure (Tg2576 mice [6]; [19]): did not significantly influence either systolic, diastolic or MAP blood pressure; systolic, diastolic, MAP blood pressure (Tg2576 mice [6]; Tg2576, any dose 3-18 mg/kg/day): No detectable changes; activity at 100 µM (Aβ1-42 [4]; [12]): 27.6%; activity at 100 µM (Aβ1-42 [4]; [13]): 27.6%; fluid intake (Tg2576 mice [7]): did not significantly influence the amount of fluid intake; plasma Aβ1-42 levels (and Aβ1-40) (Aβ1-42 and Aβ1-40; Tg2576, doses ~3 fold lower than minimal hypertension dose): prevented plasma accumulation of Aβ1-42 levels; plasma Aβ1-42 (and Aβ1-40) (Aβ1-42 and Aβ1-40; Tg2576, within the dosage range prescribed for hypertension): lowering responses were found; EC50 (Aβ1-42 [3]; [20]): 0.000119 M
CC[C@H]1[C@@H]2C[C@H]3[C@@H]4N(C)c5ccccc5[C@]45C[C@@H]([C@H]2[C@H]5O)N3[C@@H]1O [Ajmaline]	–	–	–	97.6 % of ctl	114%	114.0 % of ctl	103.3 % of ctl	–	103%	–	–	–	90.3 % of ctl	90.3 % of ctl	–
Veratrine Sulfate	124.4 % of ctl	84.4 % of ctl	–	–	–	58.5 % of ctl	87.1 % of ctl	–	–	reduced Aβ1-40	–	–	–	–	Ab1-40 (% of ctl) (Aβ1-40; [10]): 58.5 % of ctl; Ab1-42 (% of ctl) (Aβ1-42 [4]; [13]): 87.1 % of ctl
